What was measured:
Type in all cases: in vivo
[1] = test system: Maize weevil [Sitophilus Zeamais (Motschulsky)]; experiment: Maize weevil insecticidal test; details: adult weevils, percent in solution; 48 hours
Procedure, shortened: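 LC50, in percent of compound in solution, was derived from dosage-mortality curves after 48 h at about 25 °C. Ten adult weevils per container fed on four corn seeds briefly immersed in acetone:water (50:50) solutions of up to 0.01% and dried.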

[2] = test system: Housefly [Musca domestica]; experiment: Housefly insecticidal test; details: μg per 25 female flies; mortality after 48 hours
Procedure, shortened: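 Dose range started at 100 μg per 25 female flies and went downward. Insects (1-2 days old) contacted a dried acetone/peanut-oil deposit in dishes; LC50 values come from dosage-mortality curves at 48 h.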

[3] = test system: Rice water weevil [Lissorhoptrus oryzophilus (Kuschel)]; experiment: Rice water weevil insecticidal test; details: topical, μg per weevil; 48 hours
Description: The compounds in Tables 1 and 2 above were tested for insecticidal activity using the following testing procedures. LC50 values, based on the results of these tests and calculated according to dosage-mortality curves, are expressed in Table 3.
Rice water weevil [Lissorhoptrus oryzophilus (Kuschel)]:
Test compounds were diluted in acetone. Droplets (1 μl) of test solutions were applied to the ventral abdomens of ten female adult weevils. The treated weevils were placed in containers with wet cotton balls and rice foliage. The containers were covered and kept at a temperature of about 25° C. Mortality was recorded after 48 hours. Test concentrations ranged from […] or 2.5 μg per weevil down to that at which 50% mortality occurred. The LC50 values are expressed below in Table 3 under the heading "RWW" in terms of μg of test compound per weevil.

[4] = test system: Cabbage Looper [Trichoplusia ni (Hubner)]; experiment: Cabbage looper insecticidal test; details: second-instar larvae, percent in solution; 3-5 days
Procedure, shortened: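 Leaf dip, squash cotyledons, 50-50 acetone-water, top dose 0.1% and lower. 5 second-instar larvae/dish, moist filter paper, high-humidity chamber. Mortality at 3-5 d; LC50 (% in solution) from dosage-mortality curves.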

[5] = test system: Tobacco Budworm [Heliothis virescens (Fabricius)] eggs; experiment: Tobacco budworm egg test; details: 2-day old eggs, percent in solution
Procedure, shortened: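 LC50 values (percent test compound in the dip solution) were calculated from dosage-mortality curves. Egg patches, 2 days old, were dipped in acetone solutions at concentrations from 0.1% downward and held at 78° F on rearing medium until control larvae hatched and fed.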

[6] = test system: Aster Leafhopper [Macrosteles fascifrens (Stal)]; experiment: Aster leafhopper insecticidal test; details: adults/nymphs, percent in solution; 48 hours
Procedure, shortened: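 Three ~10 cm oat seedlings per cup were dipped 2-3 seconds in 50-50 acetone-water compound solutions, dried, and caged with ten adult/nymph leafhoppers. Mortality was counted after 48 hours at concentrations from 0.05% downward. LC50, as percent compound in solution, came from dosage-mortality curves.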

`CC(C)C(=Nc1ccc(Br)cc1)OCc1ccc(F)c(Oc2ccc(Cl)cc2)c1` [Compound 378] was tested, and the “LC50, MW” value [1] was over 0.01%, the “LC50, HF” value [2] was under 100 µg and the “LC50, RWW” value [3] was over 2.5 µg. For the same molecule, the “LC50, CL” value [4] was 0.00034% and the “LC50, TBW, E (TBW-E)” value [5] was 0.02%.
For `CC(C)C(=Nc1ccc(C(F)(F)F)cc1)OCc1cccc(Oc2ccccc2)c1` [Compound 68], the “LC50, MW” value [1] was over 0.01%, the “LC50, HF” value [2] was 37 µg and the “LC50, RWW” value [3] was 0.15 µg. The “LC50, CL” value [4] was 0.006%, the “LC50, TBW, E (TBW-E)” value [5] was 0.009% and the “LC50, LH” value [6] was 0.0001%.
For `CC(C)C(=Nc1ccc(C(F)(F)F)cc1)OCc1ccc(F)c(Oc2ccc(F)cc2)c1` [Compound 314], the “LC50, HF” value [2] was 21 µg, the “LC50, RWW” value [3] was 0.11 µg and the “LC50, CL” value [4] was 0.00005%. The “LC50, TBW, E (TBW-E)” value [5] was 0.012%.
For `CCC(=Nc1ccc(F)c(Cl)c1)OCc1cccc(Oc2ccccc2)c1` [Compound 85], the “LC50, MW” value [1] was over 0.01%, the “LC50, HF” value [2] was 7 µg and the “LC50, RWW” value [3] was over 2.5 µg. For the same molecule, the “LC50, CL” value [4] was 0.004%, the “LC50, TBW, E (TBW-E)” value [5] was over 0.1% and the “LC50, LH” value [6] was 0.003%.
With `CCOc1ccc(N=C(OCc2ccc(F)c(Oc3ccc(Cl)cc3)c2)C(C)C)cc1Cl` [Compound 369] the “LC50, MW” value [1] was over 0.01%, the “LC50, HF” value [2] was over 100 µg and the “LC50, RWW” value [3] was over 2.5 µg. The “LC50, CL” value [4] was 0.0016% and the “LC50, TBW, E (TBW-E)” value [5] was over 0.1%.
`CC(C)C(=Nc1ccc(Br)c(Cl)c1)OCc1cccc(Oc2ccc(Cl)cc2)c1` [Compound 380] was tested, and the “LC50, MW” value [1] was over 0.01%, the “LC50, HF” value [2] was over 100 µg and the “LC50, RWW” value [3] was over 2.5 µg. The “LC50, CL” value [4] was over 0.1% and the “LC50, TBW, E (TBW-E)” value [5] was over 0.1%.
`CC(C)C(=Nc1ccc(F)c(Cl)c1)OCc1cccc(Oc2ccc(F)cc2)c1F` [Compound 262] was tested, and the “LC50, MW” value [1] was 0.005%, the “LC50, HF” value [2] was 26 µg and the “LC50, RWW” value [3] was over 2.5 µg. For the same molecule, the “LC50, CL” value [4] was 0.0004% and the “LC50, TBW, E (TBW-E)” value [5] was over 0.1%.
With `C=C(C)C(=Nc1ccc(C(F)(F)F)cc1)OCc1ccc(F)c(Oc2ccccc2)c1` [Compound 431] the “LC50, MW” value [1] was 0.0037%, the “LC50, HF” value [2] was 9.8 µg and the “LC50, RWW” value [3] was 0.084 µg. For the same molecule, the “LC50, CL” value [4] was 0.00017% and the “LC50, TBW, E (TBW-E)” value [5] was 0.025%.
`CC(C)C(=Nc1ccc(Cl)cc1)OCc1ccc(F)c(Oc2ccc(Cl)cc2)c1` [Compound 391] was tested, and the “LC50, MW” value [1] was over 0.01%, the “LC50, HF” value [2] was under 100 µg and the “LC50, RWW” value [3] was over 2.5 µg. The “LC50, CL” value [4] was 0.00029% and the “LC50, TBW, E (TBW-E)” value [5] was 0.035%.
`CC(C)C(=Nc1ccc(Cl)c(OCC(F)(F)F)c1)OCc1ccc(F)c(Oc2ccc(Cl)cc2)c1` [Compound 452] was tested, and the “LC50, MW” value [1] was over 0.01%, the “LC50, HF” value [2] was over 100 µg and the “LC50, RWW” value [3] was 0.1 µg. The “LC50, CL” value [4] was 0.0017% and the “LC50, TBW, E (TBW-E)” value [5] was under 0.1%.
In the case of `CC(C)C(=Nc1ccc(Br)c(Cl)c1)OCc1ccc(F)c(Oc2ccc(F)cc2)c1` [Compound 382], the “LC50, MW” value [1] is reported as over 0.01%, the “LC50, HF” value [2] is reported as under 100 µg and the “LC50, RWW” value [3] is reported as over 2.5 µg. The “LC50, CL” value [4] was 0.00029% and the “LC50, TBW, E (TBW-E)” value [5] was 0.027%.
In the case of `CC(C)C(=Nc1cccc(Br)c1)OCc1ccc(F)c(Oc2ccccc2)c1` [Compound 387], the “LC50, MW” value [1] is reported as over 0.01%, the “LC50, HF” value [2] is reported as under 100 µg and the “LC50, RWW” value [3] is reported as over 2.5 µg. The “LC50, CL” value [4] was 0.0012% and the “LC50, TBW, E (TBW-E)” value [5] was 0.05%.
In the case of `CCOc1ccc(N=C(OCc2ccc(F)c(Oc3ccccc3)c2)C(C)C)cc1Cl` [Compound 370], the “LC50, MW” value [1] is reported as over 0.01%, the “LC50, HF” value [2] is reported as under 100 µg and the “LC50, RWW” value [3] is reported as over 2.5 µg. For the same molecule, the “LC50, CL” value [4] was 0.00034% and the “LC50, TBW, E (TBW-E)” value [5] was 0.02%.
